Results on 13 compounds are retold here after ChEMBL document CHEMBL5291721, “A preclinical secondary pharmacology resource illuminates target-adverse drug reaction associations of marketed drugs” (Nat Commun, 2023).

A value given as a limit tells only on which side of the number the result lay.

The target of assay [1] is Adenosine receptor A2a (Homo sapiens, UniProt P29274).
The target in assay [2] is T1, Type-1 angiotensin II receptor (Homo sapiens, UniProt P30556).
T1 sequence (P30556 whole entry): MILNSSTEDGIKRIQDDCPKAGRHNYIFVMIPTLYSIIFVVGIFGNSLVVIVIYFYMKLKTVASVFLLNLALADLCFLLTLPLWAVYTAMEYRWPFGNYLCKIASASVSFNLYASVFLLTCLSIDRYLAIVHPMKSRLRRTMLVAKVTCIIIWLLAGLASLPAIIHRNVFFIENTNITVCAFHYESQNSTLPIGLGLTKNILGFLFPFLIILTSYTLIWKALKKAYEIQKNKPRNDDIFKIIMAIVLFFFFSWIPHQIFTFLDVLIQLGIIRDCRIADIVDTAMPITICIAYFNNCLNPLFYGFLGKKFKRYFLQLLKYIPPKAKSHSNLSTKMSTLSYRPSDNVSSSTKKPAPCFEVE

For assay [3], the target named is Vasopressin V2 receptor (Homo sapiens, UniProt P30518).
Assay [4] has as its target T2, Cholecystokinin receptor type A (Homo sapiens, UniProt P32238).
T2 sequence (P32238 whole entry): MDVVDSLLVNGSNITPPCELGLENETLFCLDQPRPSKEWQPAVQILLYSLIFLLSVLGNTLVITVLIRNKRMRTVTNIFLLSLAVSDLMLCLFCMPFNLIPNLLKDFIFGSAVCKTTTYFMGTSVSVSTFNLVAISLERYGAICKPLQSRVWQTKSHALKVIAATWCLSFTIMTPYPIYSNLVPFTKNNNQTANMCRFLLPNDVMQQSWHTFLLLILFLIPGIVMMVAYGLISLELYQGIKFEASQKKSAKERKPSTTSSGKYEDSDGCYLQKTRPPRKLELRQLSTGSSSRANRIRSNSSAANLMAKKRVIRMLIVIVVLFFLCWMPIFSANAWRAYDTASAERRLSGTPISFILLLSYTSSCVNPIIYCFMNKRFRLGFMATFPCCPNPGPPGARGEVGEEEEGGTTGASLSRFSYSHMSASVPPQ

Assay [5] has as its target Gamma-aminobutyric acid receptor subunit alpha-1 (Rattus norvegicus, UniProt P62813).
In assay [6] the target is Glutamate receptor ionotropic, NMDA 1 (Rattus norvegicus, UniProt P35439).
For assay [7], the target named is 5-hydroxytryptamine receptor 2B (Homo sapiens, UniProt P41595). In kind it is functional, cell-based.
In assay [8] the target is Motilin receptor (Homo sapiens, UniProt O43193).
The target in assay [9] is Delta-type opioid receptor (Homo sapiens, UniProt P41143).
The target in assay [10] is T3, Thromboxane A2 receptor (Homo sapiens, UniProt P21731).
T3 sequence (P21731 whole entry): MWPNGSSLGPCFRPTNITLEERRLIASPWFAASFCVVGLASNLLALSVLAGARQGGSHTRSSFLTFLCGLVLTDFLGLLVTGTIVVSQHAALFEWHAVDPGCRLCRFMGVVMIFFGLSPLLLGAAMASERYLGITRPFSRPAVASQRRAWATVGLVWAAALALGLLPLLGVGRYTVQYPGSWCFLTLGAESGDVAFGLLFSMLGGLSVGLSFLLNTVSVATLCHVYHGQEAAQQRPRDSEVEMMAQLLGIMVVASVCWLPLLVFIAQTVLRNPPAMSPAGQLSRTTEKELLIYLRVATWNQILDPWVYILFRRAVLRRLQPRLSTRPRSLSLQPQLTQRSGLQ

For assay [11], the target named is Sodium-dependent dopamine transporter (Homo sapiens, UniProt Q01959).
In assay [12] the target is T4, Amine oxidase [flavin-containing] A (Homo sapiens, UniProt P21397).
T4 sequence (P21397 whole entry): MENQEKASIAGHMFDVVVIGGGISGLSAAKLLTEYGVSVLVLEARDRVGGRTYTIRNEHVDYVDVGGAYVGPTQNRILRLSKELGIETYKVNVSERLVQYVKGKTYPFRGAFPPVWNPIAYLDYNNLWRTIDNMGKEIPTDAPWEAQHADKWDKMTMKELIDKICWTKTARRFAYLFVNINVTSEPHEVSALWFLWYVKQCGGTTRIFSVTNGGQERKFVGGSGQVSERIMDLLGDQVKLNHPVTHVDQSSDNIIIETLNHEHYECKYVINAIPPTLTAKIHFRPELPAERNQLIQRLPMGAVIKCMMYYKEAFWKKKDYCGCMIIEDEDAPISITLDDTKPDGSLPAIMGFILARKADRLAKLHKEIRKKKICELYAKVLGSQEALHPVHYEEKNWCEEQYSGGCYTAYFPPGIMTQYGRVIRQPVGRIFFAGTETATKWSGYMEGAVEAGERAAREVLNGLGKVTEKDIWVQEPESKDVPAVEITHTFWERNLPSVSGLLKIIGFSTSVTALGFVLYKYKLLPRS
In kind it is functional.
Also: assay procedure not described here.

Sodium-dependent dopamine transporter, sequence (Q01959 whole entry): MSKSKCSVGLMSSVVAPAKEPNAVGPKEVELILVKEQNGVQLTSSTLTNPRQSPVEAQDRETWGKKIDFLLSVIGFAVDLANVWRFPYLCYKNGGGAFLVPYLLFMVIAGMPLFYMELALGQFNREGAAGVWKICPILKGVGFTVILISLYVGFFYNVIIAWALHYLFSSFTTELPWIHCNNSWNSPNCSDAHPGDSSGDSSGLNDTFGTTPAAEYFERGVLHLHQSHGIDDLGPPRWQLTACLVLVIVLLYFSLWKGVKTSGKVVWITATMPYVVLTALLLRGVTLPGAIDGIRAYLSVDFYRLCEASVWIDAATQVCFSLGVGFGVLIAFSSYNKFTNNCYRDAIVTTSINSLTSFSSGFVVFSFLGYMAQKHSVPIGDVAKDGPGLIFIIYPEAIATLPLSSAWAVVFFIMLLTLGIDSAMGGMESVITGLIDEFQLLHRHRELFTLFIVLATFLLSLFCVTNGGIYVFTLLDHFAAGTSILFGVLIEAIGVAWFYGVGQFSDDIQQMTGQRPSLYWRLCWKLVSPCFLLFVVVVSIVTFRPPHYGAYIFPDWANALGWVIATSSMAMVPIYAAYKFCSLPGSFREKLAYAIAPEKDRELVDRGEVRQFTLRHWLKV
Vasopressin V2 receptor, sequence (P30518 whole entry): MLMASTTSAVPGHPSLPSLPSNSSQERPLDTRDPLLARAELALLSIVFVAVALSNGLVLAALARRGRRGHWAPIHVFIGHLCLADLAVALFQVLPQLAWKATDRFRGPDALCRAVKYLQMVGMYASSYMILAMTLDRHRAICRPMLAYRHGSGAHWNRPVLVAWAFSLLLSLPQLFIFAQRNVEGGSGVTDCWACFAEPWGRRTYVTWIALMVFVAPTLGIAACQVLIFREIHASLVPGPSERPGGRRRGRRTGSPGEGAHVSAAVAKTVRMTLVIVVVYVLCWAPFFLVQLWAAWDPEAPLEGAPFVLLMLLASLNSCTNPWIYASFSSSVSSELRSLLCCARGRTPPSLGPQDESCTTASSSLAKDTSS
Gamma-aminobutyric acid receptor subunit alpha-1, sequence (P62813 whole entry): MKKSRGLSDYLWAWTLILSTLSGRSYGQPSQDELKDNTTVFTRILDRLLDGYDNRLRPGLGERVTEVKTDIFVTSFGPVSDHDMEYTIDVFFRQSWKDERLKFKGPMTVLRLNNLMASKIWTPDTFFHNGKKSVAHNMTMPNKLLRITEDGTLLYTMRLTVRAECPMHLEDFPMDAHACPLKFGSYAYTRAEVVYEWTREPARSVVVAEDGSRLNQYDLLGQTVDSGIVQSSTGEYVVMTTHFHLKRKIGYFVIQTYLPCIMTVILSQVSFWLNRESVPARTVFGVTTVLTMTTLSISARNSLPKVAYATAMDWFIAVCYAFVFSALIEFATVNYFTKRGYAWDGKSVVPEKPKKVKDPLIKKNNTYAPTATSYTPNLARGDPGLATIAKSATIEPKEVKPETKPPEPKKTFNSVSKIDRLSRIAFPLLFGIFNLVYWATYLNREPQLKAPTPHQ
Delta-type opioid receptor, sequence (P41143 whole entry): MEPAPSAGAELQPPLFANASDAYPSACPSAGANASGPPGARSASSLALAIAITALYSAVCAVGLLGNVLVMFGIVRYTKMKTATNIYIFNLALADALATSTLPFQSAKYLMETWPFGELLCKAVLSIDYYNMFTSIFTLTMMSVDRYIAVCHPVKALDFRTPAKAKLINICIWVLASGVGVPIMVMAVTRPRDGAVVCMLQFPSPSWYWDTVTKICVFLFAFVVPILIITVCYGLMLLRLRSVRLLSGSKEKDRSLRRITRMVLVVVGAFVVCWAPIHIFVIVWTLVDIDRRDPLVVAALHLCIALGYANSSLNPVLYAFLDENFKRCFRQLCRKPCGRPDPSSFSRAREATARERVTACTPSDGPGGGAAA
Motilin receptor, sequence (O43193 whole entry): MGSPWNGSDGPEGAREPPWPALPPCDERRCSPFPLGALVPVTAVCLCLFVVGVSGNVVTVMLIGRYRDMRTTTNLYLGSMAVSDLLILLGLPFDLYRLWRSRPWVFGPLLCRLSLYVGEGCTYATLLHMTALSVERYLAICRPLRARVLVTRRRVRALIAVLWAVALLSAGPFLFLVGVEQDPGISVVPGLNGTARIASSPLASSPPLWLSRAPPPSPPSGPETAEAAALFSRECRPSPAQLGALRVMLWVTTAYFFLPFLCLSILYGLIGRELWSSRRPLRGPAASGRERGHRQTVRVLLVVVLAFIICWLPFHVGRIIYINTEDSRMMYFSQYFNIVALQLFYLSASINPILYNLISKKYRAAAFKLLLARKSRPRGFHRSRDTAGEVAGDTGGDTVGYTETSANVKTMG
Adenosine receptor A2a, sequence (P29274 whole entry): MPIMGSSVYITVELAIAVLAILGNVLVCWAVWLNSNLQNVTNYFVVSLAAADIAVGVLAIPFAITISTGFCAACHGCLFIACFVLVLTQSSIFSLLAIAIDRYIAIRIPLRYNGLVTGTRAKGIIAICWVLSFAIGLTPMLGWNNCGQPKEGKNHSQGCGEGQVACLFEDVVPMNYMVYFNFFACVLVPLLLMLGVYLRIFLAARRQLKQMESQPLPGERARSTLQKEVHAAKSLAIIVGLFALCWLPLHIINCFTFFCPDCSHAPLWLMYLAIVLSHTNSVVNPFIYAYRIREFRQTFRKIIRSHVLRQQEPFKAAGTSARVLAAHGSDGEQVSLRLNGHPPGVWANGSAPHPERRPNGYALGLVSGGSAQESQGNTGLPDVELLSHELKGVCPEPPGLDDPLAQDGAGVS
5-hydroxytryptamine receptor 2B, sequence (P41595 whole entry): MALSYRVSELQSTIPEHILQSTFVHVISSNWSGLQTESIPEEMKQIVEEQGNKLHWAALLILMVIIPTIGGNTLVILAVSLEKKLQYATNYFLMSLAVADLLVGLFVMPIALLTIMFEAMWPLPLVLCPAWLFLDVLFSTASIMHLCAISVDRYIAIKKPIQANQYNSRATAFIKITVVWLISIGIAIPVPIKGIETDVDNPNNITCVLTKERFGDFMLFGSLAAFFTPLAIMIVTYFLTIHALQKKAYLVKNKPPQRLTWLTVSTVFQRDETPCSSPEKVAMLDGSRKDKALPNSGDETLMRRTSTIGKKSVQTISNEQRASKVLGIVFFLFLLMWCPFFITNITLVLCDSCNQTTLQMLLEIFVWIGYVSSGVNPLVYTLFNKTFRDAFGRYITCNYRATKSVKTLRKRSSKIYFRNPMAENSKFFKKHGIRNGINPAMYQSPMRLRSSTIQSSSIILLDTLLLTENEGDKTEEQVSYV

With `C[C@]12CC[C@H](O)CC1=CC[C@@H]1[C@@H]2CC[C@]2(C)C(c3cccnc3)=CC[C@@H]12` [ABIRATERONE], the concentration at half-maximal activity (AC50) was above 30 µM in [1]; above 30 µM in assay [2]; above 30 µM in assay [3]; above 30 µM in assay [4]; above 10 µM in assay [5]; above 10 µM in assay [6]. In addition, the AC50 was above 10 µM in assay [7]; above 10 µM in [8]; above 30 µM in assay [9]; above 30 µM in assay [10]; above 30 µM in [11]; above 10 µM in assay [12].
For the compound `CN(C)C(=O)Oc1cc(OC(=O)N(C)C)cc(C(O)CNC(C)(C)C)c1` (stereo not given) [BAMBUTEROL], the AC50 in [1], in [2], in [3], in assay [4], in assay [8] and in assay [10] was above 30 µM in each case. The compound also displayed an AC50 in assay [11] above 30 µM.
Consider `C[C@H]1C[C@H]2[C@@H]3CCC4=CC(=O)C=C[C@]4(C)[C@@]3(Cl)[C@@H](O)C[C@]2(C)[C@@]1(O)C(=O)CO` [BECLOMETHASONE], for which the AC50 in assay [1] is above 30 µM; in assay [2] it was above 30 µM; in [3], above 30 µM; in [4], above 30 µM; in [5], above 10 µM; in assay [6], above 10 µM. Also, the AC50 in [8] was above 10 µM; in assay [9] it was above 30 µM; in assay [10], above 30 µM; in assay [11], above 10 µM; in [12] it was above 10 µM.
Consider `NS(=O)(=O)c1cc(C2(O)NC(=O)c3ccccc32)ccc1Cl` (stereo not given) [CHLORTHALIDONE], for which the AC50 in assay [1], in [2], in assay [3], in assay [4], in assay [5] and in assay [6] was above 10 µM each time. For the same compound, the AC50 in [7], in [8], in assay [10], in assay [11] and in assay [12] was above 10 µM each time.
As to `C[C@@H]1CCC[C@H](C)N1NC(=O)c1ccc(Cl)c(S(N)(=O)=O)c1` [CLOPAMIDE], the AC50 in assay [1], in [2], in [3], in assay [4], in assay [5] and in [6] was above 30 µM throughout. Further, the AC50 in [7], in [8], in assay [9], in [10], in [11] and in assay [12] was above 30 µM in each case.
On to `COc1ccc2c(c1)[C@]13CCCC[C@@H]1[C@H](C2)N(C)CC3` [DEXTROMETHORPHAN], for which the AC50 in [1] was above 30 µM; in assay [2], above 30 µM; in assay [3], above 30 µM; in [4], above 30 µM; in assay [5], above 10 µM; in [7], above 10 µM. The AC50 was above 10 µM in assay [8]; above 10 µM in assay [9]; above 30 µM in [10]; above 10 µM in assay [11]; above 10 µM in assay [12].
On to `O=c1oc2ccccc2c(O)c1Cc1c(O)c2ccccc2oc1=O` [DICUMAROL], for which the AC50 in assay [1], in [2], in assay [3], in assay [4], in assay [5] and in assay [6] was above 10 µM each time. Further, the AC50 in assay [7] is above 10 µM; in assay [8], above 10 µM; in assay [9] it was above 30 µM; in assay [10] it was above 10 µM; in [11], above 10 µM; in assay [12], above 10 µM.
Consider `O=C(O)CSCC(=O)NC1CCSC1=O` (stereo not given) [ERDOSTEINE], for which the AC50 in [1], in [2], in assay [3], in [4], in [5] and in assay [6] was above 30 µM each time. In addition, the AC50 in assay [7], in assay [8], in assay [9], in [10], in assay [11] and in assay [12] was above 30 µM in each case.
On to `COc1cccc(N(C)C(=S)Oc2ccc3c(c2)CCCC3)n1` [LIRANAFTATE], for which the AC50 in [1], in assay [2], in [3], in [4], in assay [5] and in assay [6] was above 30 µM throughout. The AC50 in [7] is above 30 µM; in assay [8], above 30 µM; in [9] it was above 30 µM; in [10], above 30 µM; in [11], above 30 µM; in [12], 18 µM.
For the compound `C#C[C@]1(O)CC[C@H]2[C@@H]3CCc4cc(OC)ccc4[C@H]3CC[C@@]21C` [MESTRANOL], the AC50 in [1] was above 30 µM; in assay [2], above 10 µM; in assay [3], above 10 µM; in assay [4] it was above 10 µM; in [5], above 10 µM; in assay [6] it was above 10 µM. The AC50 in assay [7] is above 10 µM; in assay [8] it was above 10 µM; in [9], above 30 µM; in assay [10], above 10 µM; in assay [11], 20 µM; in [12] it was above 30 µM.
Turning to `N=C(N)c1ccc2cc(OC(=O)c3ccc(N=C(N)N)cc3)ccc2c1` [NAFAMOSTAT], the AC50 is above 30 µM in [1]; above 30 µM in assay [2]; above 30 µM in assay [3]; above 30 µM in assay [4]; 3.5 µM in assay [5]; 0.29 µM in assay [6]. Besides, the AC50 was 29 µM in assay [7]; 27 µM in [8]; above 30 µM in assay [10]; 2.8 µM in [11]; 14 µM in assay [12].
For `CNC(=O)Oc1ccc2c(c1)[C@]1(C)CCN(C)[C@@H]1N2C` [PHYSOSTIGMINE], the AC50 in assay [1], in [2], in [3], in [4], in assay [5] and in assay [6] was above 30 µM throughout. The AC50 in assay [7], in [8], in assay [9], in assay [10], in [11] and in assay [12] was above 30 µM in each case.
For the compound `O=C(CCCN1CCC2(CC1)C(=O)NCN2c1ccccc1)c1ccc(F)cc1` [SPIPERONE], the AC50 in assay [1], in assay [2], in assay [3], in [4], in assay [5] and in assay [6] was above 30 µM each time. The AC50 in assay [8] was above 30 µM; in assay [10], above 30 µM; in assay [11] it was 7.2 µM; in assay [12], above 30 µM.
